Source: patent publication US8703813B2, “Compound with spiro chiral carbon backbone, preparation method thereof, and pharmaceutical composition containing the same” (SNU R & DB Foundation, priority 2008, dated 2014)
pIC50: −log10 of the molar value.

Legend:
Runx2 and TAZ = assay: Western blot of osteoblast differentiation mark factors; assay type: cell-based, mouse; conditions: C3H/10T1/2 treated for 6 days
Procedure: (§1) An aliquot 116V and an aliquot 116VI extracted and partitioned from sponges are dissolved in a DMSO solvent, and used to treat the C3H/10T1/2 cell line, mesenchymal progenitor cells, at concentrations of 1, 2.5, 5, 10, and 20 ug/ml. […] Since then, the same experiment was performed on the compound (1163), the compound 2 (1162), the compound 3 (1161), and the compound 4 (1164), which were purely separated from the aliquots 116V and 116VI, and as a result, it could be confirmed that the osteoblast differentiation ability was increased in the compounds 1, 3, and 4. […] To study a mechanism with respect to osteoblast differentiation ability, the C3H/10T1/2 cell lines were treated with the compound 1 and the compound 4 for 6 days, respectively. […] Also, the C3H/10T1/2 cell lines were treated with the compound 1 and the compound 4 for 6 days, respectively. […] Furthermore, it could be ascertained that combining of Runx2 and TAZ proteins was increased by treatment of the compounds and thus the activity of Runx2-meditated transcription was increased. The compound 5, which is an ester derivative of the compound 1 (1163), was synthesized in order to prepare a material having more excellent bioactivity, and the structure of the compound 5 obtained thus was determined. […]

[1] = Solubility in organic solvents; assay type: physicochemical
LXR protein = assay: Biacore direct binding experiment
AML12 cells = assay: Gene expression regulation in liver cells (real-time PCR); assay type: cell-based; conditions: AML12 mouse liver cells, 1 μM alone or with 500 nM T0901317, 18 hours
Procedure: (§2) In order to verify efficacy of the developed liver-X-receptor antagonist, the function of regulating gene expression was identified in mouse liver cells and human liver cells. In the present experiment, mouse liver cells, AML 12 cells and human liver cells, and HepG2 cells were used. AML12 cells were cultured in DMEM medium within a cell incubator with 5% carbon dioxide at 37° C. The medium contained 10% fetal bovine serum (FBS), 100 U/ml penicillin, and 100 μg/ml streptomycin. On day 1 of the experiment, AML12 cells are seeded in 6 well plates. On day 2, when the cells were grown to 80% confluency, the medium was replaced by the DMEM medium not containing serum, and then three wells per treatment group were treated with TO901317 and the developed liver-X-receptor antagonist. […] The extracted RNAs were quantified, and 1 μg of the extracted RNAs per each sample were used in cDNA synthesis. […] The cDNAs synthesized for the real-time polymerase chain reaction were mixed with primer selective for ACC1 or Actine gene and QuantiTech Master Mix (QIAGEN). […] The Ct values per each treatment group were compared with the Ct values of the negative control group, and the differences in expression amount of genes were calculated. […]

HepG2 cells = assay: as above; assay type: cell-based; conditions: HepG2 human liver cells
Procedure: as §2

other nuclear receptors = assay: Selectivity for various nuclear receptors, transfection assay; assay type: cell-based; conditions: same method as LXR assay
Procedure: Animal cell line CV-1 was used in transfection search. Cells were cultured in DMEM medium within a cell culture device containing 5% carbon dioxide at 37° C. The medium contained 10% FBS (fetal bovine serum), 100 U/ml penicillin, and 100 μg/ml streptomycin. On day 1 of the experiment, CV 1 cells were seeded in 96 well plates at 5,000 cells/well. On day 2, the seeded cells were transfected with plasmid expressing GAL-hLXR, plasmid expressing Luciferase gene, and plasmid expressing β-galactocidase by using a transfection reagent, Superfect (QIAGEN). After 16 hours, the transfected cells were treated with the compound 1 dissolved in dimethylsulfoxide (DMSO) by the concentrations, together with the agonist, TO901317 (2.5 μM). Cells treated with dimethylsulfoxide having the final concentration of 1% were used as a negative control group, and cells treated with T0901317 having the final concentration of 500 nM were used as a positive control group. The cells were cultured for 24 hours, and lysed by using a lysis buffer. […] The β-galactosidase activity, after adding of an ONPG reagent, was measured using an ELISA reader. The measured Luciferase value was corrected by activity value of β-galactosidase. […] In addition, the activities on various nuclear receptors were measured by using the same method, in order to measure selectivity for various nuclear receptors.

3T3-L1 cells = assay: Adipocyte differentiation inhibitory ability in 3T3-L1 cells; assay type: cell-based
Runx2, Osteocalcin, Msx2 = assay: Real time PCR of osteoblast differentiation mark factors; assay type: cell-based, mouse; conditions: C3H/10T1/2 treated for 6 days, RTPCR
Procedure: as §1

[2] = Cytotoxicity, Cell Titer-Glo cell viability; assay type: cell-based, mouse; conditions: primary mouse spleen cells; mouse spleen cells, 16-18 hours
Procedure: (§3) Spleen cells of a mouse were used in measurement of cytotoxicity in […] cells. The spleen cells of the mouse were prepared as follows. The spleen from a 5˜6-week age mouse was finely minced, and only floating spleen cells were filtered through a net having a pore size of 100 μm. Erythrocytes mixed with the spleen cells were lysed by using erythrocyte lysis buffer, and then removed by centrifugation, precipitation and washing of the cells. The prepared spleen cells were seeded in 96-well plates at a concentration of 5×10^5 cells/well. Here, the spleen cells were treated with the compound of Formula 1 for measurement of toxicity according to the concentrations. The next day, the cells cultured for 16-18 hours were treated with Cell Titer-Glo Luminescent Cell Viability Assay (Promega), and after 10 minutes, cell viability was measured using the luminometer.

mouse spleen cells = assay: Cytotoxicity, Cell Titer-Glo cell viability; assay type: cell-based; conditions: mouse spleen cells vs LXR
Procedure: as §3

direct binding with the LXR protein (LXR protein): directly bound | activity on the other nuclear receptors (other nuclear receptors): never showed the activity
Structure (SMILES): CC(C)=CCC/C(C)=C/[C@H]1CC(C)=C[C@@]2(C=C(CO)[C@@H]3CC(=O)C(C)=C[C@@H]3O2)O1 [Compound 1]
protein expression of Runx2 and TAZ (Runx2 and TAZ): increased | Solubility [1]: Easily Dissolved in Organic Solvent of Acetone, Methanol, DMSO, etc. | expression of fatty acid biosynthesis genes SREBP1c, ACC, and FAS (AML12 cells): inhibited the expression | expression of fatty acid biosynthesis genes SREBP1c, ACC, and FAS (HepG2 cells): inhibited the expression | adipocyte differentiation inhibitory ability (3T3-L1 cells): very superior adipocyte differentiation inhibitory ability | transcription degree of differentiation mark factors (Runx2, Osteocalcin, Msx2, etc.) (Runx2, Osteocalcin, Msx2): remarkably increased | pIC50 [2]: 4.20 | cytotoxicity IC50 compared with antagonistic concentration against LXR (mouse spleen cells): ≥ 1000 times
